# Laboratory results: patent publication US11116735B2, “Use of substituted benzylideneguanidine derivatives as synergists for polymyxin antibiotics” (GUANGZHOU INSIGHTER BIOTECHNOLOGY CO., LTD., priority 2015, dated 2021)
# Several values for one entry are separate records, joined by “and”; a condition that tells them apart may be missing. Identical values can stand only once.
# Assays:
# P. aeruginosa E543 = test: MIC, resistance reversal by various concentrations of compound 3, P. aeruginosa E543; conditions: colistin sulfate with 0 ppm compound 3, or compound 3 (hydrochloride) in the absence of colistin sulfate
# Experimental: (§2) The compound 3 in this embodiment was in the form of a hydrochloride, i.e., the experiments were carried out with a hydrochloride of compound 3.
# (§3) In vitro minimum inhibitory concentrations of colistin sulfate against the strains where the cultures respectively comprised various concentrations of compound 3 were also measured.
# [1] = system: various colistin sulfate-resistant Gram-negative bacteria; test: MIC by doubling dilution, summary over resistant species; conditions: bound that characterises the tested resistant strains
# Experimental: as §2, §3
# E. coli 4D-6 = test: MIC by doubling dilution, colistin sulfate-resistant E. coli 4D-6; conditions: E. coli 4D-6, colistin sulfate-resistant; substance alone; derivatives as hydrochlorides
# Experimental: (§4) In vitro minimum inhibitory concentrations of colistin sulfate against the strains where the cultures respectively comprised 20.0 ppm of the substituted benzylideneguanidine derivatives were also measured.
# weanling piglets [2] = test: Synergy of derivatives and colistin sulfate in the feed for weanling piglets; assay type: in vivo, Duroc×Landrace×Large crossbred lean weanling piglets; conditions: creep feed with only 20 ppm colistin sulfate (control group), ten days
# Experimental: (§1) 90 28-day-aged Duroc×Landrace×Large crossbred lean weanling piglets similar in weight were divided into 9 groups, 10 piglets in each group. For each group, colistin sulfate and/or various substituted benzylideneguanidine derivatives were added into the antibiotic-free creep feed. The piglets were given ad libitum access to feed and water during the experiment. Weight gain, feed efficiency and diarrhea rate of each group within ten days were recorded.
# Shigella sp. 2D89 = test: MIC, resistance reversal by various concentrations of compound 3, Shigella sp. 2D89; conditions: colistin sulfate with 0 ppm compound 3, or compound 3 (hydrochloride) in the absence of colistin sulfate
# Experimental: as §2, §3
# [3] = system: colistin sulfate-susceptible Escherichia coli strains; test: MIC by doubling dilution, summary over colistin sulfate-susceptible strains; assay type: cell-based; conditions: bound that characterises the tested susceptible E. coli strains
# Klebsiella sp. 4125 = test: MIC, resistance reversal by various concentrations of compound 3, Klebsiella sp. 4125; conditions: colistin sulfate with 0 ppm compound 3, or compound 3 (hydrochloride) in the absence of colistin sulfate
# Experimental: as §2, §3
# weanling piglets [4] = test: Synergy of compound 3 and colistin sulfate in the feed for weanling piglets; assay type: in vivo, Duroc×Landrace×Large crossbred lean weanling piglets; conditions: weanling piglets, only 20 ppm colistin sulfate in creep feed (Control 1, groups 4-6), ten days
# Experimental: as §1, with “120” for “90”, “12” for “9”, “compound 3” for “various substituted benzylideneguanidine derivatives”
# E. coli 3Y-9 = test: MIC by doubling dilution, colistin sulfate-susceptible E. coli 3Y-9; assay type: cell-based, Escherichia coli; conditions: E. coli 3Y-9, colistin sulfate-susceptible; substance alone; derivatives as hydrochlorides
# E. coli 5F-1 [5] = test: MIC, resistance reversal by various concentrations of compound 3, E. coli 5F-1; conditions: colistin sulfate with 0 ppm compound 3, or compound 3 (hydrochloride) in the absence of colistin sulfate
# Experimental: as §2, §3
# weanling piglets [6] = test: Compound 3 in various dosages and colistin sulfate in the feed for weanling piglets; assay type: in vivo, Duroc×Landrace×Large crossbred lean weanling piglets; conditions: weanling piglets, only 20 ppm colistin sulfate in creep feed (control group), ten days
# Experimental: as §1, with “dosages of compound 3” for “substituted benzylideneguanidine derivatives”
# E. coli 3B-24 = test: MIC by doubling dilution, colistin sulfate-susceptible E. coli 3B-24; assay type: cell-based, Escherichia coli; conditions: E. coli 3B-24, colistin sulfate-susceptible; substance alone; derivatives as hydrochlorides
# E. coli 2G-7 = test: MIC by doubling dilution, colistin sulfate-resistant E. coli 2G-7; conditions: E. coli 2G-7, colistin sulfate-resistant; substance alone; derivatives as hydrochlorides
# Experimental: as §4
# [7] = system: colistin sulfate-resistant E. coli strains; test: MIC by doubling dilution, summary over colistin sulfate-resistant strains; conditions: bound that characterises the tested resistant E. coli strains
# Experimental: as §4
# cherry valley ducks = test: Combined application of compound 3 and colistin sulfate in duck feed; assay type: in vivo; conditions: 40 ppm colistin sulfate in feed, 21-day experiment
# Experimental: 800 1-day-aged cherry valley ducks were divided into 4 groups according to Table 10, 4 parallels in each group and 50 ducks in each parallel. For each group, colistin sulfate and/or compound 3 were added into the feed. The ducks were kept in cages and given ad libitum access to feed and water during a 21-day experiment. Synergy of compound 3 and colistin sulfate on the ducks in the weight gain and feed efficiency was observed from the result (see Table 11).
# [8] = system: fast-growing yellow feather broilers; test: Combined application of compound 3 and colistin sulfate in chicken feed; assay type: in vivo; conditions: broilers, 50 ppm colistin sulfate in feed, 28-day experiment
# Experimental: 800 1-day-aged fast-growing yellow feather broilers were divided into 4 groups, 4 parallels in each group and 50 broilers in each parallel. For each group, colistin sulfate and/or compound 3 were added into the feed. The chicken were kept in cages and given ad libitum access to feed and water during a 28-day experiment. Synergy of compound 3 and colistin sulfate on the chicken in the weight gain and feed efficiency was observed from the result (see Table 10).
# E. coli 2S-19 = test: MIC by doubling dilution, colistin sulfate-susceptible E. coli 2S-19; assay type: cell-based, Escherichia coli; conditions: E. coli 2S-19, colistin sulfate-susceptible; substance alone; derivatives as hydrochlorides
# E. coli 5W-7 = test: MIC by doubling dilution, colistin sulfate-susceptible E. coli 5W-7; assay type: cell-based, Escherichia coli; conditions: E. coli 5W-7, colistin sulfate-susceptible; substance alone; derivatives as hydrochlorides
# E. coli 5F-1 [9] = test: MIC by doubling dilution, colistin sulfate-resistant E. coli 5F-1; conditions: E. coli 5F-1, colistin sulfate-resistant; substance alone; derivatives as hydrochlorides
# Experimental: as §4
# E. coli 3H-4 = test: MIC by doubling dilution, colistin sulfate-resistant E. coli 3H-4; conditions: E. coli 3H-4, colistin sulfate-resistant; substance alone; derivatives as hydrochlorides
# Experimental: as §4
substance,measurement,setting,value
colistin sulfate [reference compound],In vitro MIC of the substance alone,P. aeruginosa E543,64.00 ppm
same,MIC value of colistin sulfate against the resistant Gram-negative bacteria,[1],higher than 4.0 ppm
same,In vitro minimum inhibitory concentration (MIC) of the substance alone,E. coli 4D-6,256 ppm and 256.0 ppm
same,Average daily weight gain,weanling piglets [2],219 g
same,Diarrhea rate,weanling piglets [2],33%
same,Feed conversion ratio,weanling piglets [2],1.649
same,In vitro MIC of the substance alone,Shigella sp. 2D89,32.00 ppm
same,MIC value of colistin sulfate against the susceptible strains,[3],lower than 4.0 ppm
same,In vitro MIC of the substance alone,Klebsiella sp. 4125,64.00 ppm
same,Average daily weight gain,weanling piglets [4],215 g and 208 g and 217 g
same,Diarrhea rate,weanling piglets [4],31% and 29% and 33%
same,Feed conversion ratio,weanling piglets [4],1.654 and 1.598 and 1.623
same,In vitro minimum inhibitory concentration (MIC) of the substance alone,E. coli 3Y-9,2.0 ppm and 2.00 ppm
same,In vitro MIC of the substance alone,E. coli 5F-1 [5],128.00 ppm
same,Average daily weight gain,weanling piglets [6],211 g
same,Diarrhea rate,weanling piglets [6],33%
same,Feed conversion ratio,weanling piglets [6],1.672
same,In vitro minimum inhibitory concentration (MIC) of the substance alone,E. coli 3B-24,2.0 ppm and 2.00 ppm
same,In vitro minimum inhibitory concentration (MIC) of the substance alone,E. coli 2G-7,64 ppm and 64.0 ppm
same,MIC value of colistin sulfate against the resistant strains,[7],higher than 4.0 ppm
same,Average daily weight gain,cherry valley ducks,50.1 g
same,Feed conversion ratio,cherry valley ducks,1.945
same,Survival rate,cherry valley ducks,100%
same,Average daily weight gain,[8],39.8 g
same,Feed conversion ratio,[8],1.965
same,Survival rate,[8],100%
same,In vitro minimum inhibitory concentration (MIC) of the substance alone,E. coli 2S-19,2.0 ppm and 2.00 ppm
same,In vitro minimum inhibitory concentration (MIC) of the substance alone,E. coli 5W-7,1.0 ppm and 1.00 ppm
same,In vitro minimum inhibitory concentration (MIC) of the substance alone,E. coli 5F-1 [9],128 ppm and 128.0 ppm
same,In vitro minimum inhibitory concentration (MIC) of the substance alone,E. coli 3H-4,64 ppm and 64.0 ppm
